According to ChEMBL document CHEMBL4007464, “Lead Development of Thiazolylsulfonamides with Carbonic Anhydrase Inhibitory Action” (J Med Chem, 2017):

Legend:
Carbonic anhydrase 9 = Carbonic anhydrase 9 (Homo sapiens, UniProt Q16790); assay: Inhibition of recombinant human Carbonic anhydrase 9 assessed as reduction in CO2 hydration preincubated for 15 mins prior to testing measured for 10 to 100 secs by stopped-flow assay
Carbonic anhydrase 1 = Carbonic anhydrase 1 (Homo sapiens, UniProt P00915); assay: Inhibition of recombinant human Carbonic anhydrase 1 assessed as reduction in CO2 hydration preincubated for 15 mins prior to testing measured for 10 to 100 secs by stopped-flow assay
Carbonic anhydrase 1, sequence (P00915 whole entry): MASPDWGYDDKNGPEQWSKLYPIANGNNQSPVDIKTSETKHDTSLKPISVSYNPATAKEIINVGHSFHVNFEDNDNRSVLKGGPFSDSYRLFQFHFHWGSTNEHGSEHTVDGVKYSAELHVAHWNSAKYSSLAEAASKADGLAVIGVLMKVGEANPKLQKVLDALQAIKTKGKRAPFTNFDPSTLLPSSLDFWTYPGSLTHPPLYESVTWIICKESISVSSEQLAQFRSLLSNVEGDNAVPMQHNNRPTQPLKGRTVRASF

Carbonic anhydrase 2 = Carbonic anhydrase 2 (Homo sapiens, UniProt P00918); assay: Inhibition of recombinant human Carbonic anhydrase 2 assessed as reduction in CO2 hydration preincubated for 15 mins prior to testing measured for 10 to 100 secs by stopped-flow assay
[1] = target: Carbonic anhydrase 5A, mitochondrial (Homo sapiens, UniProt P35218); assay: Inhibition of recombinant human Carbonic anhydrase 5A assessed as reduction in CO2 hydration preincubated for 15 mins prior to testing measured for 10 to 100 secs by stopped-flow assay
Carbonic anhydrase 5A, mitochondrial, sequence (P35218 whole entry): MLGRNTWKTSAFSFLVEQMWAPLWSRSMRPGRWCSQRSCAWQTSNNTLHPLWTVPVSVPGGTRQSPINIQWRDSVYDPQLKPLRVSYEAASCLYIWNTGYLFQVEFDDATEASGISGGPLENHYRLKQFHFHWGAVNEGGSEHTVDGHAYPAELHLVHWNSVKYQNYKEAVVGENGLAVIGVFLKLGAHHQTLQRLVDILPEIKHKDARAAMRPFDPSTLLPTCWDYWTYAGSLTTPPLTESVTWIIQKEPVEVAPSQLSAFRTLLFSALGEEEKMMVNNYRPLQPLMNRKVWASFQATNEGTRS

[2] = target: Carbonic anhydrase 5B, mitochondrial (Homo sapiens, UniProt Q9Y2D0); assay: Inhibition of recombinant human Carbonic anhydrase 5B assessed as reduction in CO2 hydration preincubated for 15 mins prior to testing measured for 10 to 100 secs by stopped-flow assay
Carbonic anhydrase 5B, mitochondrial, sequence (Q9Y2D0 whole entry): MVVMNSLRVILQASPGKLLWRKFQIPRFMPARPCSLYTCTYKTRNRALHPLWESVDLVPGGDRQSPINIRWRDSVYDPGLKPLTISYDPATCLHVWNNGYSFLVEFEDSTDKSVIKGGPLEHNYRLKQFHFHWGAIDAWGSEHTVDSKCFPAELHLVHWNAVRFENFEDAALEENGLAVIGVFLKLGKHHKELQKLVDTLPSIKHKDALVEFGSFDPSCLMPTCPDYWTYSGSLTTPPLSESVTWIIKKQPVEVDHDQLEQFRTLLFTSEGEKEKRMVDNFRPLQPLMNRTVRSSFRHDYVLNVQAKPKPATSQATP

Carbonic anhydrase 12 = Carbonic anhydrase 12 (Homo sapiens, UniProt O43570); assay: Inhibition of recombinant human Carbonic anhydrase 12 assessed as reduction in CO2 hydration preincubated for 15 mins prior to testing measured for 10 to 100 secs by stopped-flow assay
Carbonic anhydrase 12, sequence (O43570 whole entry): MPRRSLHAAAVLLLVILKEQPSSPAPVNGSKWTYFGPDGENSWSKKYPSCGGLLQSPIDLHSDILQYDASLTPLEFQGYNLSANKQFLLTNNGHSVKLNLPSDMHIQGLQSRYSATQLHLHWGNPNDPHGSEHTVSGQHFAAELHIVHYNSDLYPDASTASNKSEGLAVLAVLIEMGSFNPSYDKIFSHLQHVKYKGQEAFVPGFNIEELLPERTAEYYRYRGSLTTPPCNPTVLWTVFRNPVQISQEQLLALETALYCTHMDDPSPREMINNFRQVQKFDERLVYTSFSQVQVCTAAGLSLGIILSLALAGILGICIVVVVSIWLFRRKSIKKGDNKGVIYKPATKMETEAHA

[3] = Inhibition of carbonic anhydrase in mouse whole blood assessed as reduction in CO2 hydration preincubated for 15 mins prior to testing measured for 10 to 100 secs by stopped-flow assay
[4] = Inhibition of carbonic anhydrase in rat whole blood assessed as reduction in CO2 hydration preincubated for 15 mins prior to testing measured for 10 to 100 secs by stopped-flow assay
[5] = Inhibition of carbonic anhydrase in human whole blood assessed as reduction in CO2 hydration preincubated for 15 mins prior to testing measured for 10 to 100 secs by stopped-flow assay

| Ki (Carbonic anhydrase 9) [nM] | SMILES | further results |
| --- | --- | --- |
| 69.1 | Cc1nc(N(C)C(=O)Cc2ccc(-c3cnccn3)cc2)sc1S(N)(=O)=O |  |
| 44.5 | Cc1nc(N(C)C(=O)Cc2ccc(-c3ccccc3)cc2)sc1S(=O)(=O)NCCO |  |
| 51.4 | Cc1nc(N(C)C(=O)Cc2ccc(-c3cc(F)ccc3F)cc2)sc1S(N)(=O)=O |  |
| 10.1 | Cc1nc(N(C)C(=O)Cc2ccc(-c3ccccc3F)cc2)sc1S(N)(=O)=O |  |
| 42.9 | CN(C(=O)Cc1ccc(-c2ccccn2)cc1)c1nc(CO)c(S(N)(=O)=O)s1 |  |
| 40.8 | CNS(=O)(=O)c1sc(N(C)C(=O)Cc2ccc(-c3ccccc3)cc2)nc1C |  |
| 464 | Cc1nc(N(C)C(=O)Cc2ccc(-c3ccccn3)cc2)sc1S(N)(=O)=O | Ki (Carbonic anhydrase 1): 262 nM; Ki (Carbonic anhydrase 2): 14 nM; Ki [1]: 816 nM; Ki [2]: 251 nM; Ki (Carbonic anhydrase 12): 61.3 nM |
| 1 | Cc1nc(N(C(=O)Cc2ccc(-c3ccccc3)cc2)C2CC2)sc1S(N)(=O)=O |  |
| 24.7 | CNS(=O)(=O)c1sc(N(C)C(=O)Cc2ccc(-c3ccccn3)cc2)nc1C |  |
| 21.8 | COc1c(F)cccc1-c1ccc(CC(=O)N(C)c2nc(C)c(S(N)(=O)=O)s2)cc1 |  |
| 35 | Cc1nc(N(C)C(=O)Cc2ccc(-n3cccn3)cc2)sc1S(N)(=O)=O |  |
| 0.9 | Cc1nc(N(C)C(=O)Cc2ccc(-c3ccccc3)cc2)sc1S(N)(=O)=O |  |
| 0.9 | Cc1nc(N(C)C(=O)Cc2ccc(-c3cccc(F)c3)cc2)sc1S(N)(=O)=O |  |
| 25.6 | CNS(=O)(=O)c1sc(N(C)C(=O)Cc2ccc(-c3ccccc3F)cc2)nc1C |  |
| 261 | Cc1nc(N(C)C(=O)Cc2ccc(-c3cccc[n+]3C)cc2)sc1S(N)(=O)=O |  |
| 28.1 | CCc1nc(N(C)C(=O)Cc2ccc(-c3ccccn3)cc2)sc1S(N)(=O)=O |  |
| 81 | Cc1nc(N(C)C(=O)Cc2ccc(-c3ccccn3)cc2)sc1S(N)(=O)=O [PRITELIVIR] | Ki (Carbonic anhydrase 1): 323 nM; Ki (Carbonic anhydrase 2): 12.8 nM; Ki [1]: 474 nM; Ki [2]: 389 nM; Ki (Carbonic anhydrase 12): 77.2 nM; IC50 [3]: 134 nM; IC50 [4]: 115 nM; IC50 [5]: 65.3 nM |

| SMILES | Ki (Carbonic anhydrase 9) [nM] | further results |
| --- | --- | --- |
| Cc1nc(N(CCN(C)C)C(=O)Cc2ccc(-c3ccccc3)cc2)sc1S(N)(=O)=O | 22 |  |
| CNS(=O)(=O)c1sc(N(CCN(C)C)C(=O)Cc2ccc(-c3ccccc3)cc2)nc1C | 14 |  |
